Drawing on patent US7935670B2, “Hepatitis C virus inhibitors” (Bristol-Myers Squibb Company, priority 2006, dated 2011), this text covers IC50 and EC50 for 6 molecules.

Each structure is given as a SMILES string.

Experiment [1] addresses T1, HCV NS3/4A protease complex, BMS strain (UniProt P27958, species not given/STRAIN_BMS).
T1 construct: given for H77 and J4L6S, not expressly for BMS; fused on or other part: three-lysine solubilising tail at the end of NS4A (given for the H77 and J4L6S constructs)
Put plainly: FRET peptide assay to monitor HCV NS3/4A proteolytic activity (BMS strain). Conditions: NS3/4A BMS strain; read-out: Activity Range (IC50). Format: biochemical, HCV genotype 1a. An excerpt:
HCV NS3 protease complexes, derived from the BMS strain, H77 strain or J4L6S strain, were generated, as described below. These purified recombinant proteins were generated for use in a homogeneous assay (see below) to provide an indication of how effective compounds of the present disclosure would be in inhibiting HCV NS3 proteolytic activity.
Serum from an HCV-infected patient was obtained from Dr. T. Wright, San Francisco Hospital. An engineered full-length cDNA (compliment deoxyribonucleic acid) template of the HCV genome (BMS strain) was constructed from DNA fragments obtained by reverse transcription-PCR(RT-PCR) of serum RNA (ribonucleic acid) and using primers selected on the basis of homology between other genotype 1a strains. From the determination of the entire genome sequence, a genotype 1a was assigned to the HCV isolate according to the classification of Simmonds et al. (See P Simmonds, K A Rose, S Graham, S W Chan, F McOmish, B C Dow, E A Follett, P L Yap and H Marsden, J. Clin. Microbiol., 31(6), 1493-1503 (1993)). […] The infectious clones, H77 (1a genotype) and J4L6S (1b genotype) were obtained from R. Purcell (NIH) and the sequences are published in Genbank (AAB67036, see Yanagi, M., Purcell, R. H., Emerson, S. U. and Bukh, J. Proc. Natl. Acad. Sci. U.S.A. 94(16), 8738-8743 (1997); AF054247, see Yanagi, M., St Claire, M., Shapiro, M., Emerson, S. U., Purcell, R. H. and Bukh, J, Virology 244 (1), 161-172. (1998)).
NS3/4A protease complex-containing fractions were pooled and loaded on a desalting column Superdex-S200 pre-equilibrated with buffer D (25 mM HEPES, pH 7.5, 20% glycerol, 300 mM NaCl, 0.2% Triton X-100, 10 mM βME). Sample was loaded at a flow rate of 1 mL/min. NS3/4A protease complex-containing fractions were pooled and concentrated to approximately 0.5 mg/ml. The purity of the NS3/4A protease complexes, derived from the BMS, H77 and J4L6S strains, were judged to be greater than 90% by SDS-PAGE and mass spectrometry analyses. The enzyme was stored at −80° C., thawed on ice and diluted prior to use in assay buffer.
The purpose of this in vitro assay was to measure the inhibition of HCV NS3 protease complexes, derived from the BMS strain, H77 strain or J4L6S strain, as described above, by compounds of the present disclosure. This assay provides an indication of how effective compounds of the present disclosure would be in inhibiting HCV NS3 proteolytic activity.
In order to monitor HCV NS3/4A protease activity, an NS3/4A peptide substrate was used. The substrate was RET S1 (Resonance Energy Transfer Depsipeptide Substrate; AnaSpec, Inc. cat #22991)(FRET peptide), described by Taliani et al. in Anal. Biochem. 240(2):60-67 (1996). The sequence of this peptide is loosely based on the NS4A/NS4B natural cleavage site for the HCV NS3 protease except there is an ester linkage rather than an amide bond at the cleavage site. The peptide also contains a fluorescence donor, EDANS, near one end of the peptide and an acceptor, DABCYL, near the other end. The fluorescence of the peptide is quenched by […] resonance energy transfer (RET) between the donor and the acceptor, but as the NS3 protease cleaves the peptide the products are released from RET quenching and the fluorescence of the donor becomes apparent.
The peptide substrate was incubated with one of the three recombinant NS3/4A protease complexes, in the absence or presence of a compound of the present disclosure. The inhibitory effects of a compound were determined by monitoring the formation of fluorescent reaction product in real time using a Cytofluor Series 4000.
Assay buffer: 50 mM HEPES, pH 7.5; 0.15 M NaCl; 0.1% Triton; 15% Glycerol; 10 mM βME. Substrate: 2 μM final concentration (from a 2 mM stock solution in DMSO stored at −20° C.). HCV NS3/4A protease type 1a (1b), 2-3 nM final concentration (from a 5 μM stock solution in 25 mM HEPES, pH 7.5, 20% glycerol, 300 mM NaCl, 0.2% Triton-X100, 10 mM βME). […]

Experiment [2] deals with HCV replicon in HUH-7 cells. The experiment in a line: HCV replicon FRET assay. Conditions: Hepatitis C virus, Huh-7, read-out: Activity Range (EC50). Format: cell-based, HCV strain 1b. The text has this:
An HCV replicon whole cell system was established as described by Lohmann V, Korner F, Koch J, Herian U, Theilmann L, Bartenschlager R., Science 285(5424): 110-3 (1999). This system enabled us to evaluate the effects of our HCV Protease compounds on HCV RNA replication. Briefly, using the HCV strain 1b sequence described in the Lohmann paper (Assession number: AJ238799), an HCV cDNA was synthesized by Operon Technologies, Inc. (Alameda, Calif.), and the full-length replicon was then assembled in plasmid pGem9zf(+) (Promega, Madison, Wis.) using standard molecular biology techniques. The replicon consists of (i) the HCV 5′ UTR fused to the first 12 amino acids of the capsid protein, (ii) the neomycin phosphotransferase gene (neo), (iii) the IRES from encephalomyocarditis virus (EMCV), and (iv) HCV NS3 to NS5B genes and the HCV 3′ UTR. Plasmid DNAs were linearized with ScaI and RNA transcripts were synthesized in vitro using the T7 MegaScript transcription kit (Ambion, Austin, Tex.) according to manufacturer's directions. In vitro transcripts of the cDNA were transfected into the human hepatoma cell line, HUH-7. […] Resulting cell lines were characterized for positive and negative strand RNA production and protein production over time.
The HCV replicon FRET assay was developed to monitor the inhibitory effects of compounds described in the disclosure on HCV viral replication. HUH-7 cells, constitutively expressing the HCV replicon, were grown in Dulbecco's Modified Eagle Media (DMEM) (Gibco-BRL) containing 10% Fetal calf serum (FCS) (Sigma) and 1 mg/ml G418 (Gibco-BRL). Cells were seeded the night before (1.5×10^4 cells/well) in 96-well tissue-culture sterile plates. Compound and no compound controls were prepared in DMEM containing 4% FCS, 1:100 Penicillin/Streptomysin (Gibco-BRL), 1:100 L-glutamine and 5% DMSO in the dilution plate (0.5% DMSO final concentration in the assay). Compound/DMSO mixes were added to the cells and incubated for 4 days at 37° C. After 4 days, cells were first assessed for cytotoxicity using alamar Blue (Trek Diagnotstic Systems) for a CC50 reading. The toxicity of compound (CC50) was determined by adding 1/10th volume of alamar Blue to the media incubating the cells. After 4 h, the fluorescence signal from each well was read, with an excitation wavelength at 530 nm and an emission wavelength of 580 nm, using the Cytofluor Series 4000 (Perspective Biosystems). Plates were then rinsed thoroughly with Phosphate-Buffered Saline (PBS) (3 times 150 μl). The cells were lysed with 25 μl of a lysis assay reagent containing an HCV protease substrate (5× cell Luciferase cell culture lysis reagent (Promega #E153A) diluted to 1× with distilled water, NaCl added to 150 mM final, the FRET peptide substrate (as described for the enzyme assay above) diluted to 10 μM final from a 2 mM stock in 100% DMSO. The plate was then placed into the Cytofluor 4000 instrument which had been set to 340 nm excitation/490 nm emission, automatic mode for 21 cycles and the plate read in a kinetic mode. EC50 determinations were carried out as described for the IC50 determinations.
(In general: Replicon systems follow genome replication, usually without infectious particles.)

T1 sequence (P27958 1027-1657, change not shown, one chain of several): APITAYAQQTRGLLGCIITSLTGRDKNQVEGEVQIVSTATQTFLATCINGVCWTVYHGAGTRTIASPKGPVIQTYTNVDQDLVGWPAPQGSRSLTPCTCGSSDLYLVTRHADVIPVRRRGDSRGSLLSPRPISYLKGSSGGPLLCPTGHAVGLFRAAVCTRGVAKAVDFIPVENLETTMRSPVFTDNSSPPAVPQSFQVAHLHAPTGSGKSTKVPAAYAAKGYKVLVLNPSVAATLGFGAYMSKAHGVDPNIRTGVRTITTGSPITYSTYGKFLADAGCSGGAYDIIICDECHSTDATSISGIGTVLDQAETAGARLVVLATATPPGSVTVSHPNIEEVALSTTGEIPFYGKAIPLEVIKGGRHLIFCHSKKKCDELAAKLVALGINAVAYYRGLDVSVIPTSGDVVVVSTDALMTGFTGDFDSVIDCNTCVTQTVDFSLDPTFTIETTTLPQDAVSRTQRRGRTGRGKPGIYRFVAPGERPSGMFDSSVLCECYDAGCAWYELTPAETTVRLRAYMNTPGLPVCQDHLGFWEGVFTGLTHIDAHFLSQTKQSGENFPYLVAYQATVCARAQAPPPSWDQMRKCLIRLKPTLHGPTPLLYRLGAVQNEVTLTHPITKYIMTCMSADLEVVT

A word on the IC50: it is the concentration at which inhibition is half-maximal. One may read the EC50 as the midpoint of the concentration-response curve. On to `C=C[C@@H]1C[C@]1(NC(=O)[C@@H]1C[C@@H](OC(=O)c2ccc(F)cc2)CN1C(=O)[C@@H](NC(=O)OC(C)(C)C)C(C)(C)C)C(=O)NS(=O)(=O)C1CC1` [Compound 2], for which the IC50 in experiment [1] lay within 1 to 50 nM. In experiment [2], the EC50 lay in the range of 200 to 1000 nM.
`C=C[C@@H]1C[C@]1(NC(=O)[C@@H]1C[C@@H](OC(=O)c2ccc3ncccc3c2)CN1C(=O)[C@@H](NC(=O)OC(C)(C)C)C(C)(C)C)C(=O)NS(=O)(=O)C1CC1` [Compound 5]: the IC50 in experiment [1] lay within 1 to 50 nM. In experiment [2], the EC50 was 25 to 200 nM.
Take `C=C[C@@H]1C[C@]1(NC(=O)[C@@H]1C[C@@H](OC(=O)c2ccc(-c3ccccc3)cc2)CN1C(=O)[C@@H](NC(=O)OC(C)(C)C)C(C)(C)C)C(=O)NS(=O)(=O)C1CC1` [Compound 4]: the half-maximal inhibitory concentration (IC50) in experiment [1] lay within 1 to 50 nM. Also, the EC50 in experiment [2] lay in the range of 200 to 1000 nM.
Regarding `C=C[C@@H]1C[C@]1(NC(=O)[C@@H]1C[C@@H](OC(=O)c2ccc(OC)cc2)CN1C(=O)[C@@H](NC(=O)OC(C)(C)C)C(C)(C)C)C(=O)NS(=O)(=O)C1CC1` [Compound 3], the IC50 in experiment [1] is 1 to 50 nM. The concentration giving a half-maximal response (EC50) in experiment [2] fell in the range of 25 to 200 nM.
Turning to `C=C[C@@H]1C[C@]1(NC(=O)[C@@H]1C[C@@H](OC(=O)c2ccc3c(c2)CCO3)CN1C(=O)[C@@H](NC(=O)OC(C)(C)C)C(C)(C)C)C(=O)NS(=O)(=O)C1CC1` [Compound 7], in experiment [1], the IC50 is 1 to 50 nM. Besides, the EC50 in experiment [2] was 25 to 200 nM.
The like results for `C=C[C@@H]1C[C@]1(NC(=O)[C@@H]1C[C@@H](OC(=O)c2ccc3sccc3c2)CN1C(=O)[C@@H](NC(=O)OC(C)(C)C)C(C)(C)C)C(=O)NS(=O)(=O)C1CC1` [Compound 6] were, in that order, 1 to 50 nM and 25 to 200 nM.
